{
  "source": "patent US11026931B2",
  "about": "“Methods for the administration of certain VMAT2 inhibitors” (Neurocrine Biosciences, Inc., priority 2018, dated 2021)",
  "key": {"human VMAT1 transporter": {"biological_target": "T1, human VMAT1 transporter (Homo sapiens, UniProt P54219)", "T1 construct": "expressed in transfected cells", "T1 sequence (P54219 1-525)": "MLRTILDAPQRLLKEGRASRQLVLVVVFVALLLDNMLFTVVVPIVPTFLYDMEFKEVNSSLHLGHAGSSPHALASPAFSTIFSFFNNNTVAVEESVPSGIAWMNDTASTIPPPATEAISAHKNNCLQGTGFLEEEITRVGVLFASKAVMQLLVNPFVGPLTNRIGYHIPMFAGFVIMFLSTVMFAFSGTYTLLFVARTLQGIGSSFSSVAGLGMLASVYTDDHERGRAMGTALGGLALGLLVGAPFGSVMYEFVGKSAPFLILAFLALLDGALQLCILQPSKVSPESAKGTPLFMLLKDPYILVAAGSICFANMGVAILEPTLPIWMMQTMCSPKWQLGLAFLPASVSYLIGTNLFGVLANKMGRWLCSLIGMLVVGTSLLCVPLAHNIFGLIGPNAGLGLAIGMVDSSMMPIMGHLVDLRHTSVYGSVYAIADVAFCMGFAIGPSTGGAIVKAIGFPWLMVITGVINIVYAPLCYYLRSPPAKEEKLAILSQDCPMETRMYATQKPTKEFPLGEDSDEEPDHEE", "assay": "Uptake in cells expressing VMAT1", "format": "cell-based", "details": "for inhibition of uptake through VMAT1: cells expressing VMAT1, test compounds at concentrations up to 10 μM; for effect on the uptake of monoamines through VMAT1: compared to reserpine"}, "[1]": {"system": "ptosis (adrenergic activation)", "assay": "In vivo surrogate measure: ptosis"}, "[2]": {"system": "prolactin release from the pituitary, modulated through the D2 dopamine receptor", "assay": "In vivo surrogate measure: prolactin release"}, "[3]": {"assay": "Analysis of hypersensitivity and dermatological reactions (case reports)", "format": "in vivo", "text": "A total of 17 cases of hypersensitivity reaction and/or dermatological findings and evidence for possible causal relationship with VBZ have been reported either spontaneously (6) or after solicitation (11). Of these 17 cases, 14 cases had both hypersensitivity reaction with dermatological findings (5 were serious and 9 were non-serious)."}, "[4]": {"system": "dopamine, serotonin and adrenergic receptor subtypes", "assay": "Radioligand binding assays for monoamine receptor subtypes", "details": "for interaction with D1 and D2 receptors: radioligand binding assays and broad panel screen"}, "[5]": {"assay": "Plasma concentrations of circulating metabolites of VBZ", "format": "in vivo", "details": "metabolites formed from VBZ"}, "[6]": {"details": "of the 14 cases with hypersensitivity reaction and dermatological findings"}},
  "data": [
    {"smiles": "COc1cc2c(cc1OC)C1CC(=O)C(CC(C)C)CN1CC2", "note": "(racemic) [TBZ, 1,3,4,6,7, 11b-hexahydro-9,1O-dimethoxy-3-(2-methylpropyl)-2H-benzo(a)quinolizin-2-one, reference compound]", "values": [
      {"measurement": "inhibition of uptake through VMAT1", "setting": "human VMAT1 transporter", "result": "no significant inhibitory activity"},
      {"measurement": "effect on the uptake of monoamines through VMAT1", "setting": "human VMAT1 transporter", "result": "no significant effect"},
      {"measurement": "induction of ptosis", "setting": "[1]", "result": "induced ptosis in an equivalent manner"},
      {"measurement": "increase in serum prolactin levels", "setting": "[2]", "result": "increase in serum prolactin levels"}
    ]},
    {"smiles": "COC(=O)[C@H]1[C@H]2C[C@@H]3c4[nH]c5cc(OC)ccc5c4CCN3C[C@H]2C[C@@H](OC(=O)c2cc(OC)c(OC)c(OC)c2)[C@@H]1OC", "note": "[reserpine, reference compound]", "values": [
      {"measurement": "inhibition of uptake through VMAT1", "setting": "human VMAT1 transporter", "result": "substantially inhibited uptake through VMAT1"}
    ]},
    {"smiles": "COc1cc2c(cc1OC)[C@H]1C[C@@H](OC(=O)[C@@H](N)C(C)C)[C@H](CC(C)C)CN1CC2", "note": "[Valbenazine, (S)-2-amino-3-methyl-butyric acid (2R, 3R,11 bR)-3-isobutyl-9,10-dimethoxy-1,3,4,6,7,11b-hexahydro-2H-pyrido[2,1-a]isoquinolin-2-yl ester]", "values": [
      {"measurement": "inhibition of uptake through VMAT1", "setting": "human VMAT1 transporter", "result": "no significant inhibitory activity"},
      {"measurement": "effect on the uptake of monoamines through VMAT1", "setting": "human VMAT1 transporter", "result": "no significant effect"},
      {"measurement": "induction of ptosis", "setting": "[1]", "result": "induced ptosis in an equivalent manner"},
      {"measurement": "association with hypersensitivity reactions", "setting": "[3]; case reports received through 10 Oct. 2017", "result": "may be associated with hypersensitivity reactions with or without dermatological reactions"},
      {"measurement": "non-serious cases", "setting": "[3]; [6]", "result": 9, "unit": "cases"},
      {"measurement": "serious cases", "setting": "[3]; [6]", "result": 5, "unit": "cases"},
      {"measurement": "cases with both hypersensitivity reaction and dermatological findings", "setting": "[3]; of the 17 cases", "result": 14, "unit": "cases"}
    ]},
    {"smiles": "COc1cc2c(cc1OC)[C@@H]1C[C@H](O)[C@@H](CC(C)C)CN1CC2", "note": "[S,S,S-DHTBZ]", "values": [
      {"measurement": "interaction with D1 and D2 receptors", "setting": "[4]", "result": "interact with D1 and D2 receptors"}
    ]},
    {"smiles": "COc1cc2c(cc1OC)[C@H]1C[C@@H](OC(=O)[C@@H](N)C(C)(C)O)[C@H](CC(C)C)CN1CC2", "note": "[NBI-136110]", "values": [
      {"measurement": "inhibition of uptake through VMAT1", "setting": "human VMAT1 transporter", "result": "no significant inhibitory activity"},
      {"measurement": "effect on the uptake of monoamines through VMAT1", "setting": "human VMAT1 transporter", "result": "no significant effect"},
      {"measurement": "half-lives of plasma concentration decline", "setting": "[5]", "result": "half-lives similar to VBZ"}
    ]},
    {"smiles": "COc1cc2c(cc1OC)[C@H]1C[C@@H](O)[C@H](CC(C)C)CN1CC2", "note": "[R,R,R-DHTBZ, (2R, 3R,11bR)-3-isobutyl-9,10-dimethoxy-1,3,4,6,7,11b-hexahydro-2H-pyrido[2,1-a]isoquinolin-2-ol]", "values": [
      {"measurement": "inhibition of uptake through VMAT1", "setting": "human VMAT1 transporter", "result": "no significant inhibitory activity"},
      {"measurement": "effect on the uptake of monoamines through VMAT1", "setting": "human VMAT1 transporter", "result": "no significant effect"},
      {"measurement": "induction of ptosis", "setting": "[1]", "result": "induced ptosis in an equivalent manner"},
      {"measurement": "increase in serum prolactin levels", "setting": "[2]", "result": "induced a similar increase in serum prolactin levels as TBZ"},
      {"measurement": "half-lives of plasma concentration decline", "setting": "[5]", "result": "half-lives similar to VBZ"},
      {"measurement": "specificity for the VMAT2 transporter", "setting": "[4]; versus monoamine receptor subtypes and transporters", "result": "high specificity"}
    ]},
    {"smiles": "COc1cc2c(cc1OC)[C@@H]1C[C@@H](O)[C@@H](CC(C)C)CN1CC2", "note": "[R,S,S-DHTBZ]", "values": [
      {"measurement": "interaction with D1 and D2 receptors", "setting": "[4]", "result": "interact with D1 and D2 receptors"}
    ]}
  ]
}
